pEC50: −log10 of the molar value.
Molecular target: T1, ΔF508-CFTR (Homo sapiens, UniProt P13569, DEL508-508)
T1 construct: expressed in transfected cells
Assay: Membrane potential optical (FRET/VIPR) assay, identification of potentiator compounds
Format: cell-based
Settings: Table 3, assay not given; for % Activity: relative efficacy
Method in brief: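 NIH3T3 mouse fibroblasts stably expressing ΔF508-CFTR, temperature-corrected 24 h at 27° C., read on VIPR by FRET between CC2-DMPE and DiSBAC2(3). Potentiators identified in a double-addition format, first adding chloride-free (gluconate) medium with or without compound.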

T1 sequence (P13569 with tags, fused parts or gaps DEL508-508): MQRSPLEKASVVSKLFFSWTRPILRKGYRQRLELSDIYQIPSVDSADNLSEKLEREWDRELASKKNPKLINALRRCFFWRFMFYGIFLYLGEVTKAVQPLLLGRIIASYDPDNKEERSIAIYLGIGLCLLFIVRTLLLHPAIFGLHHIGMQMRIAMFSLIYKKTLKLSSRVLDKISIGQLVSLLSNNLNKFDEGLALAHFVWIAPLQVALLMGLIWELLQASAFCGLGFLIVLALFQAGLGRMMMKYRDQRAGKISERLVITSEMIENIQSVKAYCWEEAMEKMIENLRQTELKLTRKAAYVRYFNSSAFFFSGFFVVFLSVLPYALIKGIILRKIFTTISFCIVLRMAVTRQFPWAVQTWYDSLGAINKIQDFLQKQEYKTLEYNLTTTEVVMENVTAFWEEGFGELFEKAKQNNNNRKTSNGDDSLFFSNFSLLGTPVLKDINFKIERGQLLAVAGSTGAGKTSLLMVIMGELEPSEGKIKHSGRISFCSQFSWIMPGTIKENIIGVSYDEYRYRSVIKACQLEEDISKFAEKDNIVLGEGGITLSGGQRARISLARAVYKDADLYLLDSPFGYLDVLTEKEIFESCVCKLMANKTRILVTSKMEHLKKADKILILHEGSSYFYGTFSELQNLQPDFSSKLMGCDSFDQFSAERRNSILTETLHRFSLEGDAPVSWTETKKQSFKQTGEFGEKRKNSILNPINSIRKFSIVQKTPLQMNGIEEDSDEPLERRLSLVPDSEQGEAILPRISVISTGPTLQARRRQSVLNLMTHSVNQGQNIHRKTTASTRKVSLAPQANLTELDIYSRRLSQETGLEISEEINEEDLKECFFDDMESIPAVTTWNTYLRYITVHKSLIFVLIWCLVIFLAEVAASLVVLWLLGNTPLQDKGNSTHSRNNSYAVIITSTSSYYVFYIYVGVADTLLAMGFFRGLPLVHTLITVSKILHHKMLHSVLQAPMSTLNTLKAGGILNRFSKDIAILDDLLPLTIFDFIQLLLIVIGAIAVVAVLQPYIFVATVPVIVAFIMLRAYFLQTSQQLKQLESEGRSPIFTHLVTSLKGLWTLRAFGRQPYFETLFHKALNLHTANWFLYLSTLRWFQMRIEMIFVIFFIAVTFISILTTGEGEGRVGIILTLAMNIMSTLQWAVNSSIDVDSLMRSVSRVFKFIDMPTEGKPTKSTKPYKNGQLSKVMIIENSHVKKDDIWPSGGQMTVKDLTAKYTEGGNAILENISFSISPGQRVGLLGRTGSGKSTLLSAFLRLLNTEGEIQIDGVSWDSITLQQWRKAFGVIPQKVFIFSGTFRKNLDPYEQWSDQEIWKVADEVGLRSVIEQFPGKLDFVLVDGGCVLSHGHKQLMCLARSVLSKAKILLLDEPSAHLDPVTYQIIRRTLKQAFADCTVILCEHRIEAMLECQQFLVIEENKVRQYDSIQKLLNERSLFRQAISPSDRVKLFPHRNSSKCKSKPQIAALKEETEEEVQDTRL

Structure (SMILES)	pEC50	% Activity
Cc1cccc2[nH]cc(C(=O)Nc3ccc(N4C[C@@H]5CC[C@H]4C5)cc3C(F)(F)F)c(=O)c12 [Compound 582, N-(4-((1S,4R)-2-azabicyclo[2.2.1]heptan-2-yl)-2-(trifluoromethyl)phenyl)-5-methyl-4-oxo-1,4-dihydroquinoline-3-carboxamide]	> 5.00	++ (between 25% to 100%)
CC1CCN(S(=O)(=O)c2ccc3[nH]cc(C(=O)Nc4cc5[nH]ccc5cc4C(C)(C)C)c(=O)c3c2)CC1 [Compound 51, 6-[(4-methyl-1-piperidyl)sulfonyl]-4-oxo-N-(5-tert-butyl-1H-indol-6-yl)-1H-quinoline-3-carboxamide]	> 5.00	++ (between 25% to 100%)
O=C(Nc1ccccc1CCO)c1c[nH]c2ccccc2c1=O [Compound 40, N-[2-(2-hydroxyethyl)phenyl]-4-oxo-1H-quinoline-3-carboxamide]	4.22 to 4.60	+ (<25%)
O=C(Nc1ccc(N2CCOCC2)cc1C(F)(F)F)c1c[nH]c2ccccc2c1=O [Compound 598, N-[4-morpholino-2-(trifluoromethyl)phenyl]-4-oxo-1H-quinoline-3-carboxamide]	> 5.00	+++ (>100%)
COCCOC(=O)NCC(C)(C)c1ccc(NC(=O)c2c[nH]c3ccccc3c2=O)cc1 [Compound 28, [2-methyl-2-[4-[(4-oxo-1H-quinolin-3-yl)carbonylamino]phenyl]-propyl]aminoformic acid 2-methoxyethyl ester]	4.60 to 5.00	++ (between 25% to 100%)
Cc1cccc2[nH]cc(C(=O)Nc3ccc(OC(C)C)cc3C(F)(F)F)c(=O)c12 [Compound 547, N-[4-isopropoxy-2-(trifluoromethyl)phenyl]-5-methyl-4-oxo-1H-quinoline-3-carboxamide]	> 5.00	+++ (>100%)
O=C(Nc1cc(NS(=O)(=O)CCN2CCCCC2)cc(C(F)(F)F)c1)c1c[nH]c2ccccc2c1=O [Compound 318, 4-Oxo-N-[3-[2-(1-piperidyl)ethylsulfonylamino]-5-(trifluoromethyl)phenyl]-1H-quinoline-3-carboxamide]	4.60 to 5.00	++ (between 25% to 100%)
CN(Cc1ccccc1NC(=O)c1c[nH]c2ccccc2c1=O)C1CCCCC1 [Compound 354, N-[2-[(cyclohexyl-methyl-amino)methyl]phenyl]-4-oxo-1H-quinoline-3-carboxamide]	> 5.00	++ (between 25% to 100%)
CN(C)c1cccc(NC(=O)c2c[nH]c3ccccc3c2=O)c1 [Compound 418, N-(3-dimethylaminophenyl)-4-oxo-1H-quinoline-3-carboxamide]	4.60 to 5.00	++ (between 25% to 100%)
O=C(Nc1ccc(N2CC[C@@H](O)C2)cc1C(F)(F)F)c1c[nH]c2ccccc2c1=O [Compound 705, (R)-N-(4-(3-hydroxypyrrolidin-1-yl)-2-(trifluoromethyl)phenyl)-4-oxo-1,4-dihydroquinoline-3-carboxamide]	> 5.00	++ (between 25% to 100%)
O=C(Nc1cccc(C(F)(F)F)c1)c1c[nH]c2ccccc2c1=O [Compound 164, 4-oxo-N-[3-(trifluoromethyl)phenyl]-1H-quinoline-3-carboxamide]	> 5.00	++ (between 25% to 100%)
CC(C)n1cc(C(=O)Nc2ccccc2)c(=O)c2ccccc21 [Compound 29, 1-isopropyl-4-oxo-N-phenyl-1H-quinoline-3-carboxamide]	4.60 to 5.00	++ (between 25% to 100%)
Cc1ccc2[nH]cc(C(=O)Nc3ccc(N4[C@H](C)CC[C@H]4C)cc3C(F)(F)F)c(=O)c2c1 [Compound 569, N-(4-((2R,5R)-2,5-dimethylpyrrolidin-1-yl)-2-(trifluoromethyl)phenyl)-6-methyl-4-oxo-1,4-dihydroquinoline-3-carboxamide]	> 5.00	++ (between 25% to 100%)
COc1ncc(-c2ccccc2NC(=O)c2c[nH]c3ccccc3c2=O)c(OC)n1 [Compound 97, N-[2-(2,4-dimethoxypyrimidin-5-yl)phenyl]-4-oxo-1H-quinoline-3-carboxamide]	> 5.00	++ (between 25% to 100%)

Results, then the molecule that gave them:

pEC50	% Activity	Structure (SMILES)
> 5.00	++ (between 25% to 100%)	C#Cc1ccc(NC(=O)c2c[nH]c3ccccc3c2=O)cc1 [Compound 332, N-(4-ethynylphenyl)-4-oxo-1H-quinoline-3-carboxamide]
–	++ (between 25% to 100%)	CC(=O)N1CCCC(C)(C)c2ccc(NC(=O)c3c[nH]c4ccccc4c3=O)cc21 [Compound 109, N-(1-acetyl-2,3,4,5-tetrahydro-5,5-dimethyl-1H-benzo[b]azepin-8-yl)-1,4-dihydro-4-oxoquinoline-3-carboxamide]
> 5.00	++ (between 25% to 100%)	CCc1cc(Br)ccc1NC(=O)c1c[nH]c2ccccc2c1=O [Compound 263, N-(4-bromo-2-ethyl-phenyl)-4-oxo-1H-quinoline-3-carboxamide]
4.22 to 4.60	+ (<25%)	O=C(Nc1ccc(Cl)nc1)c1c[nH]c2ccccc2c1=O [Compound 392, N-(6-chloro-3-pyridyl)-4-oxo-1H-quinoline-3-carboxamide]
> 5.00	++ (between 25% to 100%)	CN(C)c1ccc2[nH]cc(C(=O)Nc3cc(O)c(C(C)(C)C)cc3C(C)(C)C)c(=O)c2c1 [Compound 544, 6-dimethylamino-N-(5-hydroxy-2,4-ditert-butyl-phenyl)-4-oxo-1H-quinoline-3-carboxamide]
> 5.00	++ (between 25% to 100%)	CC(C)(C)OC(=O)N1CCC(C)(C)c2ccc(NC(=O)c3c[nH]c4ccccc4c3=O)cc21 [Compound 108, 4,4-dimethyl-7-[(4-oxo-1H-quinolin-3-yl)carbonylamino]-1,2,3,4-tetrahydroquinoline-1-carboxylic acid tert-butyl ester]
> 5.00	++ (between 25% to 100%)	O=C(Nc1ccc(Sc2ccccc2)cc1)c1c[nH]c2ccccc2c1=O [Compound 470, 4-oxo-N-(4-phenylsulfanylphenyl)-1H-quinoline-3-carboxamide]
> 5.00	++ (between 25% to 100%)	CC(C)c1ccc(NC(=O)c2c[nH]c3ccccc3c2=O)cc1N(C)C [Compound 117, N-(3-dimethylamino-4-isopropyl-phenyl)-4-oxo-1H-quinoline-3-carboxamide]
> 5.00	++ (between 25% to 100%)	CC1(C)CCNc2cc(NC(=O)c3c[nH]c4ccccc4c3=O)ccc21 [Compound 300, N-(4,4-Dimethyl-1,2,3,4-tetrahydroquinolin-7-yl)-4-oxo-1H-quinoline-3-carboxamide]
4.60 to 5.00	++ (between 25% to 100%)	CC(C)(CO)c1ccc(NC(=O)c2c[nH]c3ccccc3c2=O)cc1 [Compound 5, N-[4-(2-hydroxy-1,1-dimethyl-ethyl)phenyl]-4-oxo-1H-quinoline-3-carboxamide]
4.60 to 5.00	++ (between 25% to 100%)	O=C(Nc1cccc2cccnc12)c1c[nH]c2ccccc2c1=O [Compound 241, 4-oxo-N-(8-quinolyl)-1H-quinoline-3-carboxamide]
